According to ChEMBL document CHEMBL1156251, “Structure--activity relationships of polymyxin antibiotics” (J Med Chem, 2010):
≈ marks a conversion by molar mass, not a printed value. Where a SMILES comes first, the peptide text is derived from it. Bridges are numbered along the chain shown (N, C = ends). [ ]: non-standard residue; d: D form. The star is where a group is joined. Octanoyl = CCCCCCCC(=O)*; Dab = NCC[C@H](N)C(=O)O

How the values were obtained:
Pseudomonas aeruginosa [1] = assay: Antimicrobial activity against Pseudomonas aeruginosa; assay type: functional, organism-based
Escherichia coli [2] = assay: Antimicrobial activity against Escherichia coli; assay type: functional
Staphylococcus aureus = assay: Antimicrobial activity against Staphylococcus aureus; assay type: functional
Escherichia coli [3] = assay: Antimicrobial activity against Escherichia coli K-12; assay type: functional
Pseudomonas aeruginosa [4] = system: Pseudomonas aeruginosa
Salmonella enterica = assay: Antimicrobial activity against Salmonella enterica; assay type: functional
Mus musculus [5] = assay: Protective activity in sc dosed CF1 mouse; settings: in vivo
[6] = (§1) Toxicity in iv dosed CF1 mouse; assay type: organism-based; settings: CF1, mouse, in vivo
Klebsiella pneumoniae = assay: Antimicrobial activity against Klebsiella pneumoniae; assay type: functional
Mus musculus [7] = assay: Acute toxicity in iv dosed mouse; assay type: organism-based; settings: in vivo
Lipopolysaccharide (LPS) [8] = assay: Displacement of dansyl-PMB from LPS by isothermal titration calorimetry
Lipopolysaccharide (LPS) [9] = assay: Displacement of dansyl-PMB from LPS by fluorometric assay
[10] = (§2) Toxicity in mouse; assay type: organism-based; settings: in vivo
Escherichia coli [11] = assay: Antimicrobial activity against Escherichia coli assessed as relative sensitizing activity; assay type: functional
Mus musculus [12] = species on record: Mus musculus; assay: as §2; assay type: organism-based; settings: in vivo
Mus musculus [13] = assay: as §1; assay type: organism-based; settings: mouse, in vivo
Escherichia coli [14] = assay: Antimicrobial activity against PMB-resistant Escherichia coli SC9253; assay type: functional
Escherichia coli [15] = assay: Antimicrobial activity against PMB-susceptible Escherichia coli SC9251; assay type: functional

CCCCCCCCC(=O)N[C@H](C(=O)N[C@@H](CCN)C(=O)N[C@H]1CCNC(=O)[C@H]([C@@H](C)O)NC(=O)[C@H](CCN)NC(=O)[C@H](CCN)NC(=O)[C@H](CC(C)C)NC(=O)[C@@H](Cc2ccccc2)NC(=O)[C@H](CCN)NC1=O)[C@@H](C)O showed an MIC (Pseudomonas aeruginosa [1]) of 2 µg/mL, an MIC (Escherichia coli [2]) of 0.5 µg/mL and an MIC (Staphylococcus aureus) of at least 16 µg/mL.

For CCC(C)CCCCCC(=O)N[C@H](C(=O)N[C@@H](CCN)C(=O)N[C@H]1CCNC(=O)[C@H]([C@@H](C)O)NC(=O)[C@H](CCN)NC(=O)[C@H](CCN)NC(=O)[C@H](CC(C)C)NC(=O)[C@@H](CC(C)C)NC(=O)[C@H](CCN)NC1=O)[C@@H](C)O (stereo partly specified), the MIC (Escherichia coli [3]) was 50 µg/mL (≈ 46.2 µM).

Compound POLYMYXIN B [listing 1 of 2 here] has an MIC (Pseudomonas aeruginosa [4]) of 1 µM, an MIC (Escherichia coli [2]) of 1 µM and an MIC (Salmonella enterica) of 1 µM.

In the case of CCCCCCCC(=O)N[C@@H](CCN)C(=O)N[C@H](C(=O)N[C@@H](CCN)C(=O)N[C@H]1CCNC(=O)[C@H]([C@@H](C)O)NC(=O)[C@H](CCNC(=O)[C@@H](N)CCCNC(=N)N)NC(=O)[C@H](CCN)NC(=O)[C@H](CC(C)C)NC(=O)[C@@H](Cc2ccccc2)NC(=O)[C@H](CCN)NC1=O)[C@@H](C)O (Octanoyl-[Dab]T[Dab][Dab][Dab][dF]L[Dab][Dab](Arg)T; lactam 4-C), the PD50 (Mus musculus [5]) is reported as 0.25 mg/kg, the MIC (Pseudomonas aeruginosa [1]) is reported as 0.03 µg/mL and the LD50 [6] is reported as 15 mg/kg. For the same compound, the MIC (Escherichia coli [2]) was 0.16 µg/mL and the MIC (Klebsiella pneumoniae) was 2 µg/mL (≈ 1.49 µM).

CCCCCCCCCCCC(=O)N[C@H](C(=O)N[C@@H](CCN)C(=O)N[C@H]1CCNC(=O)[C@H]([C@@H](C)O)NC(=O)[C@H](CCN)NC(=O)[C@H](CCN)NC(=O)[C@H](CC(C)C)NC(=O)[C@@H](CC(C)C)NC(=O)[C@H](CCN)NC1=O)[C@@H](C)O showed an MIC (Escherichia coli [3]) of 3 µg/mL (≈ 2.7 µM).

CC(C)C[C@@H]1NC(=O)[C@@H](Cc2ccccc2)NC(=O)[C@H](CCN)NC(=O)[C@@H](NC(=O)[C@H](CCN)NC(=O)[C@@H](NC(=O)[C@H](CN)NC(=O)O)[C@@H](C)O)CCNC(=O)[C@H]([C@@H](C)O)NC(=O)[C@H](CCN)NC(=O)[C@H](CCN)NC1=O [DESFA-[DIAMINOPROPANOIC ACID1]POLYMYXIN B] gave an MIC (Pseudomonas aeruginosa [1]) of 1 µM, an LD50 (Mus musculus [7]) of 23.5 µM/g and an MIC (Escherichia coli [2]) of 8 µM. The IC50 (Lipopolysaccharide (LPS) [8]) was 14 µM and the MIC (Salmonella enterica) was 16 µM (≈ 17.5 µg/mL).

In the case of CCCCCCCCCC(=O)N[C@H](C(=O)N[C@@H](CCN)C(=O)N[C@H]1CCNC(=O)[C@H]([C@@H](C)O)NC(=O)[C@H](CCN)NC(=O)[C@H](CCN)NC(=O)[C@H](CC(C)C)NC(=O)[C@@H](CC(C)C)NC(=O)[C@H](CCN)NC1=O)[C@@H](C)O, the MIC (Escherichia coli [3]) is reported as 3 µg/mL (≈ 2.77 µM).

CCCCCCCCCCCCCC(=O)N[C@H](C(=O)N[C@@H](CCN)C(=O)N[C@H]1CCNC(=O)[C@H]([C@@H](C)O)NC(=O)[C@H](CCN)NC(=O)[C@H](CCN)NC(=O)[C@H](CC(C)C)NC(=O)[C@@H](CC(C)C)NC(=O)[C@H](CCN)NC1=O)[C@@H](C)O showed an MIC (Pseudomonas aeruginosa [1]) of 4 µM, an MIC (Escherichia coli [3]) of 12 µg/mL (≈ 10.5 µM) and an MIC (Escherichia coli [2]) of 4 µM. It also gave an MIC (Salmonella enterica) of 2 µM (≈ 2.28 µg/mL).

With CCCCCCCCCCC(=O)N[C@H](C(=O)N[C@@H](CCN)C(=O)N[C@H]1CCNC(=O)[C@H]([C@@H](C)O)NC(=O)[C@H](CCN)NC(=O)[C@H](CCN)NC(=O)[C@H](CC(C)C)NC(=O)[C@@H](CC(C)C)NC(=O)[C@H](CCN)NC1=O)[C@@H](C)O the MIC (Escherichia coli [3]) was 3 µg/mL (≈ 2.73 µM).

For CCNCC[C@@H]1NC(=O)[C@H](CCN)NC(=O)[C@H](CC(C)C)NC(=O)[C@@H](Cc2ccccc2)NC(=O)[C@H](CCN)NC(=O)[C@@H](NC(=O)[C@H](CCN)NC(=O)[C@@H](NC(=O)[C@H](CCN)NC(=O)CCCCC(C)CC)[C@@H](C)O)CCNC(=O)[C@H]([C@@H](C)O)NC1=O (stereo partly specified), the MIC (Pseudomonas aeruginosa [1]) was 0.413 µg/mL, the dansyl-PMB displacement concentration (Lipopolysaccharide (LPS) [9]) was 9.5 µg/mL and the MIC (Escherichia coli [2]) was 0.492 µg/mL.

CCC(C)CCCCC(=O)N[C@@H](CCNC(C)=O)C(=O)N[C@H](C(=O)N[C@@H](CCN)C(=O)N[C@H]1CCNC(=O)[C@H]([C@@H](C)O)NC(=O)[C@H](CCN)NC(=O)[C@H](CCN)NC(=O)[C@H](CC(C)C)NC(=O)[C@@H](Cc2ccccc2)NC(=O)[C@H](CCN)NC1=O)[C@@H](C)O (stereo partly specified) gave an MIC (Pseudomonas aeruginosa [1]) of 2.8 µg/mL, a dansyl-PMB displacement concentration (Lipopolysaccharide (LPS) [9]) of 2.8 µg/mL and an MIC (Escherichia coli [2]) of 1.3 µg/mL.

Work on CCC(C)CCCCC(=O)N[C@@H](CCNC(=O)C(N)CCCNC(=N)N)C(=O)N[C@H](C(=O)N[C@@H](CCN)C(=O)N[C@H]1CCNC(=O)[C@H]([C@@H](C)O)NC(=O)[C@H](CCN)NC(=O)[C@H](CCN)NC(=O)[C@H](CC(C)C)NC(=O)[C@@H](Cc2ccccc2)NC(=O)[C@H](CCN)NC1=O)[C@@H](C)O (stereo partly specified) yielded an MIC (Pseudomonas aeruginosa [1]) of 0.207 µg/mL, a dansyl-PMB displacement concentration (Lipopolysaccharide (LPS) [9]) of 4.48 µg/mL and an MIC (Escherichia coli [2]) of 0.453 µg/mL.

Compound CCC(C)CCCCC(=O)N[C@@H](CCNC(=O)CN)C(=O)N[C@H](C(=O)N[C@@H](CCN)C(=O)N[C@H]1CCNC(=O)[C@H]([C@@H](C)O)NC(=O)[C@H](CCN)NC(=O)[C@H](CCN)NC(=O)[C@H](CC(C)C)NC(=O)[C@@H](Cc2ccccc2)NC(=O)[C@H](CCN)NC1=O)[C@@H](C)O (stereo partly specified) has an MIC (Pseudomonas aeruginosa [1]) of 0.033 µg/mL, a dansyl-PMB displacement concentration (Lipopolysaccharide (LPS) [9]) of 8 µg/mL and an MIC (Escherichia coli [2]) of 0.028 µg/mL.

With CCCCCCCCCC(=O)N[C@H](C(=O)N[C@@H](CCN)C(=O)N[C@H]1CCNC(=O)[C@H]([C@@H](C)O)NC(=O)[C@H](CCN)NC(=O)[C@H](CCN)NC(=O)[C@H](CC(C)C)NC(=O)[C@@H](Cc2ccccc2)NC(=O)[C@H](CCN)NC1=O)[C@@H](C)O [DECANOYL POLYMIXIN B NONAPEPTIDE] the MIC (Pseudomonas aeruginosa [1]) was 2 µg/mL, the MIC (Escherichia coli [2]) was 1 µg/mL and the MIC (Staphylococcus aureus) was at least 16 µg/mL.

With CC(C)C[C@@H]1NC(=O)[C@@H](Cc2ccccc2)NC(=O)[C@H](CCN)NC(=O)[C@@H](NC(=O)[C@H](CCN)NC(=O)[C@@H](NC(=O)[C@H](Cc2c[nH]c3ccccc23)NC(=O)O)[C@@H](C)O)CCNC(=O)[C@H]([C@@H](C)O)NC(=O)[C@H](CCN)NC(=O)[C@H](CCN)NC1=O [DESFA-[TRP1]POLYMYXIN B] the MIC (Pseudomonas aeruginosa [1]) was 8 µM, the LD50 (Mus musculus [7]) was 19 µM/g and the MIC (Escherichia coli [2]) was 8 µM. The IC50 (Lipopolysaccharide (LPS) [8]) was 20 µM and the MIC (Salmonella enterica) was 8 µM (≈ 9.55 µg/mL).

CC(C)C[C@@H]1NC(=O)[C@@H](Cc2ccccc2)NC(=O)[C@H](CCN)NC(=O)[C@@H](NC(=O)[C@H](CCN)NC(=O)[C@@H](N)[C@@H](C)O)CCNC(=O)[C@H]([C@@H](C)O)NC(=O)[C@H](CCN)NC(=O)[C@H](CCN)NC1=O (stereo in doubt; 193) [POLYMYXIN B NONAPEPTIDE] gave an LD50 [10] of 43 mg/kg, an Activity (Escherichia coli [11]) of 100% and an IC50 (Lipopolysaccharide (LPS) [8]; read-out: IC50) of 2.5 µM.

For CCCCCCCCC(=O)N[C@H](C(=O)N[C@@H](CCN)C(=O)N[C@H]1CCNC(=O)[C@H]([C@@H](C)O)NC(=O)[C@H](CCN)NC(=O)[C@H](CCN)NC(=O)[C@H](CC(C)C)NC(=O)[C@@H](CC(C)C)NC(=O)[C@H](CCN)NC1=O)[C@@H](C)O, the MIC (Escherichia coli [3]) was 12 µg/mL (≈ 11.2 µM).

Work on POLYMYXIN B [listing 2 of 2 here] yielded an LD50 (Mus musculus [12]) of 9 mg/kg, an LD50 (Mus musculus [13]) of 9 mg/kg and an LD50 (Mus musculus [7]) of 4.8 µM/g. For the same compound, the IC50 (Lipopolysaccharide (LPS) [8]) was 4 µM.

Compound CC(C)CCCCCC(O)CC(=O)N[C@@H](CCN)C(=O)N[C@H]1CCNC(=O)[C@H](CC(C)C)NC(=O)[C@H](CCN)NC(=O)[C@H](CCN)NC(=O)[C@H](CC(C)C)NC(=O)[C@@H](Cc2ccccc2)NC(=O)[C@H](CCN)NC1=O (stereo partly specified) [OCTAPEPTIN A1] has an MIC (Escherichia coli [14]) of 0.3 µg/mL (≈ 0.283 µM) and an MIC (Escherichia coli [15]) of 1.7 µg/mL (≈ 1.61 µM).

With CCCCCCCC(=O)N[C@H](C(=O)N[C@@H](CCN)C(=O)N[C@H]1CCNC(=O)[C@H]([C@@H](C)O)NC(=O)[C@H](CCN)NC(=O)[C@H](CCN)NC(=O)[C@H](CC(C)C)NC(=O)[C@@H](Cc2ccccc2)NC(=O)[C@H](CCN)NC1=O)[C@@H](C)O (stereo in doubt; 80) [Octanoyl Polymixin B nonapeptide] the MIC (Pseudomonas aeruginosa [1]) was 4 µg/mL, the MIC (Escherichia coli [2]) was 0.03 µg/mL and the MIC (Staphylococcus aureus) was at least 16 µg/mL.

For CCC(C)CCCCC(=O)N[C@@H](CCNC(=O)C(N)CCCCNC(=O)OCc1ccccc1)C(=O)N[C@H](C(=O)N[C@@H](CCN)C(=O)N[C@H]1CCNC(=O)[C@H]([C@@H](C)O)NC(=O)[C@H](CCN)NC(=O)[C@H](CCN)NC(=O)[C@H](CC(C)C)NC(=O)[C@@H](Cc2ccccc2)NC(=O)[C@H](CCN)NC1=O)[C@@H](C)O (stereo partly specified), the MIC (Pseudomonas aeruginosa [1]) was 0.175 µg/mL, the dansyl-PMB displacement concentration (Lipopolysaccharide (LPS) [9]) was 1.12 µg/mL and the MIC (Escherichia coli [2]) was 0.206 µg/mL.

CCC(C)CCCCCCC(=O)N[C@H](C(=O)N[C@@H](CCN)C(=O)N[C@H]1CCNC(=O)[C@H]([C@@H](C)O)NC(=O)[C@H](CCN)NC(=O)[C@H](CCN)NC(=O)[C@H](CC(C)C)NC(=O)[C@@H](CC(C)C)NC(=O)[C@H](CCN)NC1=O)[C@@H](C)O (stereo partly specified) gave an MIC (Escherichia coli [3]) of 25 µg/mL (≈ 22.8 µM).
